Assay results from patent US11174253B2, “Compound and pharmaceutical composition containing the same” (ALPHALA CO., LTD., priority 2017, dated 2021).

Test system: hepatocellular carcinoma cell line Hep3B
Assay: Growth inhibition of Hep3B cells, 48 hr treatment, Hoechst 33342 nucleus count (GE InCell 2200)
Format: cell-based
Settings: Homo sapiens
Protocol: The potency of selected compounds was defined by the growth inhibition ability to the hepatocellular carcinoma cell line Hep3B. The Hep3B cells were treated with selected compounds for 48 hr under 37° C., 5% CO2, and 95% relative humidity.
The number of treated cells was determined by GE InCell 2200 system, and treated cells were stained with Hoechst 33342 which can reveal the remained nucleus in culture plate. The proportion of survival cells then were calculated with the ratio of treated/non-treated cells. The growth inhibition/cytotoxic effect of selected compounds were evaluated by the following protocol of NCI-60 screening platform. The human tumor cell lines are plating on a 96 well plate in a fixed density 24 hr prior compound treatment. Compounds with multiple concentrations are then added into each well for further 48 hr incubation. Cell viability is assessed by MTS method and the potency of compound is represented by GI50 and LC50 calculated by MTS result.
Herein, the “Ratio in 10 μM (%)” in the following Tables 1-6 refers to the ratio of the number of tumor cells treated with 10 μM of selected compounds to the number of non-treated tumer cells.

[1] = Table 1, ratio of number of tumor cells treated with 10 μM compound to non-treated cells
[2] = Table 3, ratio of number of tumor cells treated with 10 μM compound to non-treated cells
[3] = Table 4, ratio of number of tumor cells treated with 10 μM compound to non-treated cells
[4] = Table 5, ratio of number of tumor cells treated with 10 μM compound to non-treated cells

## Nc1nc2ccc(CC(=O)Nc3nnc(-c4ccc([N+](=O)[O-])cc4)s3)cc2s1 [Compound 1-8, 2-(2-aminobenzo[d]thiazol-6-yl)-N-(5-(4-nitrophenyl)-1,3,4-thiadiazol-2-yl)acetamide]
[1]
  viability at 10 µM: 76%

## CN(C)c1ccc(-c2nnc(NC(=O)Cc3ccc4nc(N)sc4c3)s2)cc1 [Compound 1-9, 2-(2-aminobenzo[d]thiazol-6-yl)-N-(5-(4-(dimethylamino)phenyl)-1,3,4-thiadiazol-2-yl)acetamide]
[1]
  viability at 10 µM: 60%

## Nc1nc2ccc(CC(=O)Nc3nnc(-c4ccccc4OC(F)(F)F)s3)cc2s1 [Compound 1-11, 2-(2-aminobenzo[d]thiazol-6-yl)-N-(5-(2-(trifluoromethoxy)phenyl)-1,3,4-thiadiazol-2-yl)acetamide]
[1]
  viability at 10 µM: 68%

## Nc1nc2ccc(CC(=O)Nc3nnc(-c4ccc(I)cc4)s3)cc2s1 [Compound 1-12, 2-(2-aminobenzo[d]thiazol-6-yl)-N-(5-(4-iodophenyl)-1,3,4-thiadiazol-2-yl)acetamide]
[1]
  viability at 10 µM: 67%

## Nc1nc2ccc(CC(=O)Nc3nnc(-c4ccc(Br)c([N+](=O)[O-])c4)s3)cc2s1 [Compound 1-13, 2-(2-aminobenzo[d]thiazol-6-yl)-N-(5-(4-bromo-3-nitrophenyl)-1,3,4-thiadiazol-2-yl)acetamide]
[1]
  viability at 10 µM: 60%

## CC(C)Oc1ccc(-c2nnc(NC(=O)Cc3ccc4nc(N)sc4c3)s2)cc1 [Compound 1-14, 2-(2-aminobenzo[d]thiazol-6-yl)-N-(5-(4-isopropoxyphenyl)-1,3,4-thiadiazol-2-yl)acetamide]
[1]
  viability at 10 µM: 71%

## CCCCOc1ccc(-c2nnc(NC(=O)Cc3ccc4nc(N)sc4c3)s2)cc1 [Compound 1-21, 2-(2-aminobenzo[d]thiazol-6-yl)-N-(5-(4-butoxyphenyl)-1,3,4-thiadiazol-2-yl)acetamide]
[1]
  viability at 10 µM: 81%

## CCOc1cc(OCC)c(-c2nnc(NC(=O)Cc3ccc4nc(N)sc4c3)s2)c(OCC)c1 [Compound 1-24, 2-(2-aminobenzo[d]thiazol-6-yl)-N-(5-(2,4,6-triethoxyphenyl)-1,3,4-thiadiazol-2-yl)acetamide]
[1]
  viability at 10 µM: 88%

## CCOc1ccc(-c2nnc(NC(=O)Cc3ccc4nc(N)sc4c3)s2)nc1 [Compound 1-30, 2-(2-aminobenzo[d]thiazol-6-yl)-N-(5-(5-ethoxypyridin-2-yl)-1,3,4-thiadiazol-2-yl)acetamide]
[1]
  viability at 10 µM: 37%

## CCCc1ccc(-c2nnc(NC(=O)Cc3ccc4nc(N)sc4c3)s2)cc1 [Compound 1-33, 2-(2-aminobenzo[d]thiazol-6-yl)-N-(5-(4-propylphenyl)-1,3,4-thiadiazol-2-yl)acetamide]
[1]
  viability at 10 µM: 44%

## CCOc1ccncc1-c1nnc(NC(=O)Cc2ccc3nc(N)sc3c2)s1 [Compound 1-34, 2-(2-aminobenzo[d]thiazol-6-yl)-N-(5-(4-ethoxypyridin-3-yl)-1,3,4-thiadiazol-2-yl)acetamide]
[1]
  viability at 10 µM: 78%

## CCOc1ccc(-c2nnc(N(C)C(=O)Cc3ccc4nc(N)sc4c3)s2)c(OCC)c1 [Compound 1-36, 2-(2-aminobenzo[d]thiazol-6-yl)-N-(5-(2,4-diethoxyphenyl)-1,3,4-thiadiazol-2-yl)-N-methylacetamide]
[1]
  viability at 10 µM: 53%

## Nc1nc2ccc(CC(=O)Nc3nnc(-c4ccccc4OC(F)(F)F)o3)cc2s1 [Compound 2-4, 2-(2-aminobenzo[d]thiazol-6-yl)-N-(5-(2-(trifluoromethoxy)phenyl)-1,3,4-oxadiazol-2-yl)acetamide]
Table 2, ratio of number of tumor cells treated with 10 μM compound to non-treated cells
  viability at 10 µM: 88%

## COc1ccc(-c2sc(NC(=O)Cc3ccc4nc(N)sc4c3)nc2-c2ccc(C)cc2)cc1OC [Compound 3-5, 2-(2-aminobenzo[d]thiazol-6-yl)-N-(5-(3,4-dimethoxyphenyl)-4-(p-tolyl)thiazol-2-yl)acetamide]
[2]
  viability at 10 µM: 85%

## CCCOc1ccc(-c2nc(NC(=O)Cc3ccc4nc(N)sc4c3)sc2-c2ccc(F)cc2)cc1 [Compound 3-6, 2-(2-aminobenzo[d]thiazol-6-yl)-N-(5-(4-fluorophenyl)-4-(4-propoxyphenyl)thiazol-2-yl)acetamide]
[2]
  viability at 10 µM: 83%

## Cc1ccc(-c2nc(NC(=O)Cc3ccc4nc(N)sc4c3)sc2-c2cc(C(F)(F)F)cc(C(F)(F)F)c2)cc1 [Compound 3-7, 2-(2-aminobenzo[d]thiazol-6-yl)-N-(5-(3,5-bis(trifluoromethyl)phenyl)-4-(p-tolyl)thiazol-2-yl)acetamide]
[2]
  viability at 10 µM: 78%

## COc1cccc(-c2nc(NC(=O)Cc3ccc4nc(N)sc4c3)sc2Br)c1 [Compound 3-8, 2-(2-aminobenzo[d]thiazol-6-yl)-N-(5-bromo-4-(3-methoxyphenyl)thiazol-2-yl)acetamide]
[2]
  viability at 10 µM: 84%

## CCOc1ccc(-c2cnc(NC(=O)Cc3ccc4nc(N)sc4c3)s2)cc1 [Compound 3-11, 2-(2-aminobenzo[d]thiazol-6-yl)-N-(5-(4-ethoxyphenyl)thiazol-2-yl)acetamide]
[2]
  viability at 10 µM: 60%

## CCOc1ccc(-c2csc(NC(=O)Cc3ccc4nc(N)sc4c3)n2)c(OCC)c1 [Compound 3-12, 2-(2-aminobenzo[d]thiazol-6-yl)-N-(4-(2,4-diethoxyphenyl)thiazol-2-yl)acetamide]
[2]
  viability at 10 µM: 50%

## CCOc1ccc(-c2nc(NC(=O)Cc3ccc4nc(N)sc4c3)sc2Oc2ccccc2)cc1 [Compound 3-13, 2-(2-aminobenzo[d]thiazol-6-yl)-N-(4-(4-ethoxyphenyl)-5-phenoxythiazol-2-yl)acetamide]
[2]
  viability at 10 µM: 58%

## CCOc1ccc(-c2nc(NC(=O)Cc3ccc4nc(N)sc4c3)sc2Cc2ccccc2)cc1 [Compound 3-14, 2-(2-aminobenzo[d]thiazol-6-yl)-N-(5-benzyl-4-(4-ethoxyphenyl)thiazol-2-yl)acetamide]
[2]
  viability at 10 µM: 76%

## CCOc1ccc(-c2ccc(NC(=O)Cc3ccc4nc(N)sc4c3)s2)cc1 [Compound 4-2, 2-(2-aminobenzo[d]thiazol-6-yl)-N-(5-(4-ethoxyphenyl)thiophen-2-yl)acetamide]
[3]
  viability at 10 µM: 89%

## CCOc1ccc(-c2cnc(NC(=O)Cc3ccc4nc(N)sc4c3)[nH]2)c(OCCOC)c1 [Compound 4-3, 2-(2-aminobenzo[d]thiazol-6-yl)-N-(5-(4-ethoxy-2-(2-methoxyethoxy)phenyl)-1H-imidazol-2-yl)acetamide]
[3]
  viability at 10 µM: 40%

## CCOc1ccc(-c2cnc(NC(=O)Cc3ccc4nc(N)sc4c3)[nH]2)c(OCC)c1 [Compound 4-4, 2-(2-aminobenzo[d]thiazol-6-yl)-N-(5-(2,4-diethoxyphenyl)-1H-imidazol-2-yl)acetamide]
[3]
  viability at 10 µM: 40%

## O=C(Nc1nc(-c2ccc(Br)cc2)c(Oc2ccccc2)s1)c1ccc([N+](=O)[O-])s1 [Compound 5-1, N-(4-(4-bromophenyl)-5-phenoxythiazol-2-yl)-5-nitrothiophene-2-carboxamide]
[4]
  viability at 10 µM: 66%

## O=C(Nc1nc(-c2cccc([N+](=O)[O-])c2)c(Oc2ccccc2)s1)c1ccc([N+](=O)[O-])s1 [Compound 5-3, 5-nitro-N-(4-(3-nitrophenyl)-5-phenoxythiazol-2-yl)thiophene-2-carboxamide]
[4]
  viability at 10 µM: 82%

## COc1cccc(-c2nc(NC(=O)c3ccc([N+](=O)[O-])s3)sc2Oc2ccccc2)c1 [Compound 5-4, N-(4-(3-methoxyphenyl)-5-phenoxythiazol-2-yl)-5-nitrothiophene-2-carboxamide]
[4]
  viability at 10 µM: 63%

## CCOc1ccccc1-c1nc(NC(=O)c2ccc([N+](=O)[O-])s2)sc1Oc1ccccc1 [Compound 5-5, N-(4-(2-ethoxyphenyl)-5-phenoxythiazol-2-yl)-5-nitrothiophene-2-carboxamide]
[4]
  viability at 10 µM: 47%

## CCOc1ccc(-c2nc(NC(=O)c3ccc([N+](=O)[O-])s3)sc2Oc2ccccc2)c(OCC)c1 [Compound 5-12, N-(4-(2,4-diethoxyphenyl)-5-phenoxythiazol-2-yl)-5-nitrothiophene-2-carboxamide]
[4]
  viability at 10 µM: 46%

## CCCOc1ccc(-c2nc(NC(=O)c3ccc([N+](=O)[O-])s3)sc2Oc2cccnc2)cc1 [Compound 5-13, 5-nitro-N-(4-(4-propoxyphenyl)-5-(pyridin-3-yloxy)thiazol-2-yl)thiophene-2-carboxamide]
[4]
  viability at 10 µM: 53%

## COCCOc1ccc(-c2nc(NC(=O)c3ccc([N+](=O)[O-])s3)sc2Oc2cccnc2)cc1 [Compound 5-15, N-(4-(4-(2-methoxyethoxy)phenyl)-5-(pyridin-3-yloxy)thiazol-2-yl)-5-nitrothiophene-2-carboxamide]
[4]
  viability at 10 µM: 54%

## COCCOc1ccc(-c2nc(NC(=O)c3ccc([N+](=O)[O-])s3)sc2Oc2ccccc2)cc1 [Compound 5-16, N-(4-(4-(2-methoxyethoxy)phenyl)-5-phenoxythiazol-2-yl)-5-nitrothiophene-2-carboxamide]
[4]
  viability at 10 µM: 59%

## CCCOc1ccc(-c2nc(NC(=O)c3ccc([N+](=O)[O-])s3)sc2Oc2ccccc2OCC)cc1 [Compound 5-21, N-(5-(2-ethoxyphenoxy)-4-(4-propoxyphenyl)thiazol-2-yl)-5-nitrothiophene-2-carboxamide]
[4]
  viability at 10 µM: 28%

## CCOc1ccc(-c2nc(NC(=O)c3ccc([N+](=O)[O-])s3)sc2Oc2ccc(C(F)(F)F)cc2)cc1 [Compound 5-25, N-(4-(4-ethoxyphenyl)-5-(4-(trifluoromethyl)phenoxy)thiazol-2-yl)-5-nitrothiophene-2-carboxamide]
[4]
  viability at 10 µM: 32%
